According to ChEMBL document CHEMBL3763148, “Synthesis, structure elucidation, DNA-PK and PI3K and anti-cancer activity of 8- and 6-aryl-substituted-1-3-benzoxazines” (Eur J Med Chem, 2016):

What was measured:
[1] = Cytotoxicity against human HOP62 cells assessed as cell growth inhibition at 10 uM after 48 hrs by SRB assay relative to control; type: functional; conditions: HOP-62, 48 h, read-out: GI
[2] = Cytotoxicity against human UACC257 cells assessed as cell growth inhibition at 10 uM after 48 hrs by SRB assay relative to control; type: functional; conditions: UACC-257, 48 h, read-out: GI
SK-MEL-5 = test: Cytotoxicity against human SK-MEL-5 cells assessed as cell growth inhibition at 10 uM after 48 hrs by SRB assay relative to control; type: functional; conditions: SK-MEL-5, 48 h, read-out: GI
[3] = Cytotoxicity against human SNB19 cells assessed as cell growth inhibition at 10 uM after 48 hrs by SRB assay relative to control; type: functional; conditions: SNB-19, 48 h, read-out: GI
MCF7 = test: Cytotoxicity against human MCF7 cells assessed as cell growth inhibition at 10 uM after 48 hrs by SRB assay relative to control; type: functional; conditions: MCF7, 48 h, read-out: GI
[4] = Cytotoxicity against human OVCAR5 cells assessed as cell growth inhibition at 10 uM after 48 hrs by SRB assay relative to control; type: functional; conditions: OVCAR-5, 48 h, read-out: GI
[5] = Cytotoxicity against human OVCAR3 cells assessed as cell growth inhibition at 10 uM after 48 hrs by SRB assay relative to control; type: functional; conditions: OVCAR-3, 48 h, read-out: GI
A498 = test: Cytotoxicity against human A498 cells assessed as cell growth inhibition at 10 uM after 48 hrs by SRB assay relative to control; type: functional; conditions: A498, 48 h, read-out: GI
[6] = Cytotoxicity against human RXF393 cells assessed as cell growth inhibition at 10 uM after 48 hrs by SRB assay relative to control; type: functional; conditions: RXF 393, 48 h, read-out: GI
[7] = Cytotoxicity against human NCI-ADR-RES cells assessed as cell growth inhibition at 10 uM after 48 hrs by SRB assay relative to control; type: functional; conditions: read-out: GI
[8] = Cytotoxicity against human SF268 cells assessed as cell growth inhibition at 10 uM after 48 hrs by SRB assay relative to control; type: functional; conditions: SF-268, 48 h, read-out: GI
[9] = Cytotoxicity against human IGROV1 cells assessed as cell growth inhibition at 10 uM after 48 hrs by SRB assay relative to control; type: functional; conditions: IGROV-1, 48 h, read-out: GI
[10] = Cytotoxicity against human HCT15 cells assessed as cell growth inhibition at 10 uM after 48 hrs by SRB assay relative to control; type: functional; conditions: HCT-15, 48 h, read-out: GI
[11] = Cytotoxicity against human OVCAR8 cells assessed as cell growth inhibition at 10 uM after 48 hrs by SRB assay relative to control; type: functional; conditions: OVCAR-8, 48 h, read-out: GI
M14 = test: Cytotoxicity against human M14 cells assessed as cell growth inhibition at 10 uM after 48 hrs by SRB assay relative to control; type: functional; conditions: M14, 48 h, read-out: GI
[12] = Cytotoxicity against human UACC62 cells assessed as cell growth inhibition at 10 uM after 48 hrs by SRB assay relative to control; type: functional; conditions: UACC-62, 48 h, read-out: GI
SK-MEL-2 = test: Cytotoxicity against human SK-MEL-2 cells assessed as cell growth inhibition at 10 uM after 48 hrs by SRB assay relative to control; type: functional; conditions: SK-MEL-2, 48 h, read-out: GI
[13] = Cytotoxicity against human DU145 cells assessed as cell growth inhibition at 10 uM after 48 hrs by SRB assay relative to control; type: functional; conditions: DU-145, 48 h, read-out: GI
MDA-MB-468 = test: Cytotoxicity against human MDA-MB-468 cells assessed as cell growth inhibition at 10 uM after 48 hrs by SRB assay relative to control; type: functional; conditions: MDA-MB-468, 48 h, read-out: GI
SK-MEL-28 = test: Cytotoxicity against human SK-MEL-28 cells assessed as cell growth inhibition at 10 uM after 48 hrs by SRB assay relative to control; type: functional; conditions: SK-MEL-28, 48 h, read-out: GI
[14] = Cytotoxicity against human BT549 cells assessed as cell growth inhibition at 10 uM after 48 hrs by SRB assay relative to control; type: functional; conditions: BT-549, 48 h, read-out: GI
[15] = molecular target: T1, Phosphatidylinositol 4,5-bisphosphate 3-kinase catalytic subunit delta isoform (Homo sapiens, UniProt O00329); test: Inhibition of PI3Kdelta (unknown origin) incubated for 60 mins by kinase-glo luminescence assay
T1 sequence (O00329 whole entry): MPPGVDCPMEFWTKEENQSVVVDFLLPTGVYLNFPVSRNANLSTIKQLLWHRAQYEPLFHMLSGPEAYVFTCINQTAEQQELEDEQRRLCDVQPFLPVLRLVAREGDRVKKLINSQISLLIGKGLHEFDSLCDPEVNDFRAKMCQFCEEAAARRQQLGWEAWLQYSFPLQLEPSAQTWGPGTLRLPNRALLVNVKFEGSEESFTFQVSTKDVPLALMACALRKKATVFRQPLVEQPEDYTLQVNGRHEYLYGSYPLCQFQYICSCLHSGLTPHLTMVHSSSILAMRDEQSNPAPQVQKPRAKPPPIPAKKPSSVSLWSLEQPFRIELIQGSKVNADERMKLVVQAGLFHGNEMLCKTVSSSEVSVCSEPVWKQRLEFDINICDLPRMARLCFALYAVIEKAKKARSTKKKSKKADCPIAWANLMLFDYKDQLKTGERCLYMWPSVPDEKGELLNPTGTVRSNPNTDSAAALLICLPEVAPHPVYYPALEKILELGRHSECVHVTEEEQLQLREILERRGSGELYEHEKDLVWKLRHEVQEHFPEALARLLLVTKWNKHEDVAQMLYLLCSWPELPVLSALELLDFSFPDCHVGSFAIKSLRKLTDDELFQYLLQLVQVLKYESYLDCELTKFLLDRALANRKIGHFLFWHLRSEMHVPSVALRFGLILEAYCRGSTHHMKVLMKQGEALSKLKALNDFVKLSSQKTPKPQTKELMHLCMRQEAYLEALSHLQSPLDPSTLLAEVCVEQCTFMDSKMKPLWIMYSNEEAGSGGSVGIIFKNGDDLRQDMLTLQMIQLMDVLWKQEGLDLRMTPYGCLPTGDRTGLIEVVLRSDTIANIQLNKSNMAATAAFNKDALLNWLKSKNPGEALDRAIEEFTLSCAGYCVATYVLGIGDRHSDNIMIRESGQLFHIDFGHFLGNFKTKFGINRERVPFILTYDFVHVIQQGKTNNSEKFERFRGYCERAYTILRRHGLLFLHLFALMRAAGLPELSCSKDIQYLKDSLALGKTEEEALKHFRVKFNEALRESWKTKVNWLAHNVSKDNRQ

[16] = Cytotoxicity against human SKOV3 cells assessed as cell growth inhibition at 10 uM after 48 hrs by SRB assay relative to control; type: functional; conditions: SK-OV-3, 48 h, read-out: GI
[17] = Cytotoxicity against human SF539 cells assessed as cell growth inhibition at 10 uM after 48 hrs by SRB assay relative to control; type: functional; conditions: SF-539, 48 h, read-out: GI

SMILES	inhibition of growth at 10 µM [1] [%]	inhibition of growth at 10 µM [2] [%]	inhibition of growth at 10 µM (SK-MEL-5) [%]	inhibition of growth at 10 µM [3] [%]	inhibition of growth at 10 µM (MCF7) [%]	inhibition of growth at 10 µM [4] [%]	inhibition of growth at 10 µM [5] [%]	inhibition of growth at 10 µM (A498) [%]	inhibition of growth at 10 µM [6] [%]	inhibition of growth at 10 µM [7] [%]	inhibition of growth at 10 µM [8] [%]	inhibition of growth at 10 µM [9] [%]	inhibition of growth at 10 µM [10] [%]	inhibition of growth at 10 µM [11] [%]	inhibition of growth at 10 µM (M14) [%]	inhibition of growth at 10 µM [12] [%]	inhibition of growth at 10 µM (SK-MEL-2) [%]	inhibition of growth at 10 µM [13] [%]	inhibition of growth at 10 µM (MDA-MB-468) [%]	inhibition of growth at 10 µM (SK-MEL-28) [%]	other results
O=c1nc(N2CCOCC2)oc2c(-c3cccc4c3oc3ccccc34)cccc12	13	-3.42	13.7	4.3	11.3	10.7	2.85	27.9	15	12.8	9.26	0.3	13.1	3.88	-2.42	37.4	-4.28	1.77	18.7	2.4	inhibition of growth at 10 µM [14]: 2.25%; IC50 [15]: 12 µM; inhibition of growth at 10 µM [16]: -14.9%; inhibition of growth at 10 µM [17]: 3.81%
O=c1nc(N2CCOCC2)oc2c(-c3cccc4ccccc34)cccc12	19.2	3.51	20.8	8.18	10.2	10.8	14.2	92	38.9	16.3	19.4	24.6	6.69	14.8	6.76	45.6	-0.37	2.34	23.5	5.64	inhibition of growth at 10 µM [14]: 14.7%; IC50 [15]: 0.64 µM; inhibition of growth at 10 µM [16]: 10%; inhibition of growth at 10 µM [17]: 15%
O=c1nc(N2CCOCC2)oc2c(-c3ccsc3)cccc12	15.3	1.24	13.4	-3.77	22.3	10.8	11.8	37.2	14.4	13.3	13.1	7.97	6.07	3.77	3.28	31.4	-2.53	0.16	15	8.4	inhibition of growth at 10 µM [14]: 4.54%; IC50 [15]: 4.8 µM; inhibition of growth at 10 µM [16]: -0.06%; inhibition of growth at 10 µM [17]: -6.9%
NC(=O)c1ccc(-c2cccc3c(=O)nc(N4CCOCC4)oc23)cc1	4.92	-3.78	2.24	0.88	9.68	3.19	0.57	1.82	-4.38	2.66	6.21	-3.1	-2.19	-1.1	2.25	7.72	-2.17	-3.19	-5.19	-3.25	inhibition of growth at 10 µM [14]: 1.94%; IC50 [15]: > 10 µM; inhibition of growth at 10 µM [16]: -3.41%; inhibition of growth at 10 µM [17]: -1.74%
O=c1nc(N2CCOCC2)oc2c(-c3cccs3)cccc12	8.34	3.74	13.3	5.86	21.9	4.55	2.61	36.8	9.88	11	5.21	8.05	0.33	5	0.86	20.9	-7.08	-2.35	20.3	2.22	inhibition of growth at 10 µM [14]: 14.5%; IC50 [15]: 4.5 µM; inhibition of growth at 10 µM [16]: -0.56%; inhibition of growth at 10 µM [17]: 1.52%
O=c1nc(N2CCOCC2)oc2ccc(-c3cccc4c3sc3ccccc34)cc12	4.6	4.51	9.84	4.68	21	0.51	-11.1	37.4	-5.78	2.44	-3.32	-5.28	29.8	0.97	2.99	12.6	1.3	-3.21	20	4.76	inhibition of growth at 10 µM [14]: 4.62%; inhibition of growth at 10 µM [16]: -10.4%; inhibition of growth at 10 µM [17]: 0.05%
